For five compounds, EC50 results are on record in patent publication US10414811B2, “Protease-resistant lipidated GLP-1 analogs” (MEDIMMUNE LIMITED, priority 2015, dated 2019).

pEC50: −log10 of the molar value. Like-named read-outs stand apart in the source and are kept apart here. Numbered stars: 1 amine (or outer) side, 2 acyl side, 3 side chain; on linkers, the order of the positions; unused ones are H or OH. Square brackets hold non-standard residues; d marks the D form. Side chains are listed from the residue outwards. Peptide text beside a SMILES is read from it. * marks the point of attachment. C18 diacid = O=C(O)CCCCCCCCCCCCCCCCC(=O)*; γGlu = O=C(O)[C@H](CCC(=O)[*:2])N[*:1]; αMeF = C[C@](N)(Cc1ccccc1)C(=O)O; αMeK = C[C@](N)(CCCCN)C(=O)O; αMeS = C[C@](N)(CO)C(=O)O; AEEA = NCCOCCOCC(=O)O; Aib = CC(C)(N)C(=O)O

By pEC50 is commonly meant the negative decadic logarithm of the EC50, by convention in mol/L.

Common to all, as to type: cell-based
Test [1] deals with T1, human glucagon receptor (GCGR) (Homo sapiens, UniProt P47871).
T1 construct: expressed in transfected cells
T1 sequence (P47871 26-477): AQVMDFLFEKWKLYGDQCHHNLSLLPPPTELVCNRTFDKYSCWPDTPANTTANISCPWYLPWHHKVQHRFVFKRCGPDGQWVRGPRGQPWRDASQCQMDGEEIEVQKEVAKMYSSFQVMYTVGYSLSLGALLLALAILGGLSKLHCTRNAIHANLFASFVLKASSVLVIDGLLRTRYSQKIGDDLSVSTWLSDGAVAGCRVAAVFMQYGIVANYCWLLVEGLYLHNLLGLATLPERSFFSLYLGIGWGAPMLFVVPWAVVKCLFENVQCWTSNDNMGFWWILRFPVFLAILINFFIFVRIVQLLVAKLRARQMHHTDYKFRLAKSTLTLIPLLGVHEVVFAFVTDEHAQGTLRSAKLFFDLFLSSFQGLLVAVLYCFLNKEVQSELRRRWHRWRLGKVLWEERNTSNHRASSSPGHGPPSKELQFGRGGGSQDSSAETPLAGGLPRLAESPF
The test can be described thus: cAMP assay, human GCGR cells. Conditions: cAMP assay. Summed up: (§1)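 Peptide-stimulated cAMP measured by two-step HTRF after a 30 min room-temperature incubation with receptor-expressing cells (hGLP-1R, hGIPR at 1×10^5 cells/ml; hGCGR at 2×10^5 cells/ml). Duplicate dilutions; EC50 from 4-parameter logistic fit of % Delta F.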
(In general: cAMP levels reflect the balance of adenylyl cyclase and phosphodiesterase activity.)

A further test addresses T2, GLP-1R (INS1e assay) (Rattus norvegicus, UniProt P32301).
T2 construct: endogenous in cells; host or cells: INS-1E cells
T2 sequence (P32301 22-463): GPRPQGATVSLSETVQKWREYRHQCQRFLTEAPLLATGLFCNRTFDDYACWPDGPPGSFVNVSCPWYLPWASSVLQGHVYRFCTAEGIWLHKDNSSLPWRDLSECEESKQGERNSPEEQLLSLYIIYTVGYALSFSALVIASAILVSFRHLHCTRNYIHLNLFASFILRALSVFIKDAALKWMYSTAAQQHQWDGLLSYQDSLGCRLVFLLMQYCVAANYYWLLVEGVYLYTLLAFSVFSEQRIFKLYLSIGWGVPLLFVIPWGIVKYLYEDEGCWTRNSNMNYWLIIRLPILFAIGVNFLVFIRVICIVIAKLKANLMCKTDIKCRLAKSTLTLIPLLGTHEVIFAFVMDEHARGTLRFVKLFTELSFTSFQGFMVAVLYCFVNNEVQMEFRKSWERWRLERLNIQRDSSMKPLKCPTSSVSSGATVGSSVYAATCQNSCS
The test can be described thus: INS1e assay, cAMP activity at GLP-1R. The note with it: mono-lipidated peptides; for EC50: mean of n1 and n2, read-out: INS1e assay EC50 Mean pM GLP-1R. Summed up:
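cAMP was quantified by two-step HTRF, using anti-cAMP cryptate donor and cAMP-d2 acceptor, each diluted 1/20 in conjugate and lysis buffer. EC50 values of the synthetic peptides were derived from the cAMP readout.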

Test [2] has as its target T3, human GLP-1 receptor (GLP-1R) (Homo sapiens, UniProt P43220).
T3 construct: expressed in transfected cells
The test can be described thus: cAMP assay, human GLP-1R cells. The note with it: for pEC50: cAMP assay; for EC50: mean of n1 and n2, read-out: Mean pM GLP-1R. A digest of the protocol:
as §1

Test [3] addresses T4, human glucose-dependent insulinotropic peptide receptor (GIPR) (Homo sapiens, UniProt P48546).
T4 construct: expressed in transfected cells
T4 sequence (P48546 22-466): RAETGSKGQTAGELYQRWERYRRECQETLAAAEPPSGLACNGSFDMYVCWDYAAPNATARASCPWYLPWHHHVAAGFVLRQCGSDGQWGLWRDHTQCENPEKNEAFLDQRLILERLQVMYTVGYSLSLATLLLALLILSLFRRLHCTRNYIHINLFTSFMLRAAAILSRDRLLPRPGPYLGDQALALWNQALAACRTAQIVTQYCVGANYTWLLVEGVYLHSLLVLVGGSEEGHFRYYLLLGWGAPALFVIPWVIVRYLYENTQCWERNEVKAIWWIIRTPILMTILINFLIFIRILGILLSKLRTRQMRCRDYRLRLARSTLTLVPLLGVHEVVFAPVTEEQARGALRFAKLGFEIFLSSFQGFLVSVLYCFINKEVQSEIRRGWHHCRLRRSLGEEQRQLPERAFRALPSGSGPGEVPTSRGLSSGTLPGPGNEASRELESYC
Put plainly: cAMP assay, human GIPR cells. The note with it: cAMP assay. Summed up: as §1

Where [4] appears, read: replicate n1, read-out: INS1e assay EC50 GLP-1R n1.
Setting [5] is: replicate n2, read-out: INS1e assay EC50 GLP-1R n2.
Setting [6] is: first determination (n1), read-out: Primary assay EC50 GLP-1R n1.
The mark [7] stands for this setting: second determination (n2), read-out: Primary assay EC50 GLP-1R n2.
Where [8] appears, read: first determination (n1), read-out: Primary assay EC50 Gluc-R (n1).
The mark [9] stands for this setting: second determination (n2), read-out: Primary assay EC50 Gluc-R (n2).
Setting [10] is: first determination (n1), read-out: Primary assay EC50 GIP-R (n1).
The mark [11] stands for this setting: second determination (n2), read-out: Primary assay EC50 GIP-R (n2).

T3 sequence (P43220 24-463): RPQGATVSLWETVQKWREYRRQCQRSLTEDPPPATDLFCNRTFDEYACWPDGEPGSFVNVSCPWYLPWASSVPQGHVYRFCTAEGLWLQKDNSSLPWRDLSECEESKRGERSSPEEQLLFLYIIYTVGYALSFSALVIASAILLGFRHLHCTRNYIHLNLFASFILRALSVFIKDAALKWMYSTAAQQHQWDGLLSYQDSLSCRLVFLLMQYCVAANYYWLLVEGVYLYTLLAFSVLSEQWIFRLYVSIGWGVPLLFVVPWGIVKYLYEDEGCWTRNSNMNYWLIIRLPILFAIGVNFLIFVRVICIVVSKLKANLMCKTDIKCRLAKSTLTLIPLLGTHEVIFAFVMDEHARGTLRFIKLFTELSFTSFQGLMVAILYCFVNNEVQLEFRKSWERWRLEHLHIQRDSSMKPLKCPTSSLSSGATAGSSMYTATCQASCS

Consider `CC[C@H](C)[C@H](NC(=O)[C@](C)(Cc1ccccc1)NC(=O)[C@H](CCC(=O)O)NC(=O)[C@H](CCCCNC(=O)COCCOCCNC(=O)CCCCCCCCCCCOc1ccc(C(=O)O)cc1)NC(=O)[C@H](C)NC(=O)[C@H](C)NC(=O)[C@H](CCC(=O)O)NC(=O)CNC(=O)[C@H](CCC(=O)O)NC(=O)[C@H](CC(C)C)NC(=O)[C@](C)(Cc1ccccc1)NC(=O)[C@H](CO)NC(=O)[C@](C)(CO)NC(=O)[C@@H](NC(=O)[C@H](CC(=O)O)NC(=O)[C@H](CO)NC(=O)[C@@H](NC(=O)[C@](C)(Cc1ccccc1)NC(=O)[C@H](CO)NC(=O)CNC(=O)[C@H](CCC(=O)O)NC(=O)C(C)(C)NC(=O)[C@@H](N)Cc1c[nH]cn1)[C@@H](C)O)C(C)C)C(=O)N[C@@H](C)C(=O)N[C@@](C)(Cc1ccccc1)C(=O)N[C@H](C(=O)N[C@H](C(=O)N[C@@](C)(CCCCN)C(=O)NCC(=O)NCC(N)=O)C(C)C)C(C)C` [compound 143], for which the pEC50 in test [1] (Primary assay EC50 Gluc-R (n1), first determination (n1)) is ≤ 7.57; in test [1] (read-out: Primary assay EC50 Gluc-R (n2), second determination (n2)), ≤ 7.57; at GLP-1R (INS1e assay) (setting [4]), 10.35; on GLP-1R (INS1e assay) (setting [5]), 10.64; in test [2] (setting [6]), 10.92; in test [2] (setting [7]), 11.28. Further, the pEC50 was ≤ 7.57 in test [3] (Primary assay EC50 GIP-R (n1), first determination (n1)) and ≤ 7.57 in test [3] (read-out: Primary assay EC50 GIP-R (n2), second determination (n2)). For the same compound, the EC50 came to 34 pM at GLP-1R (INS1e assay) and 8.6 pM in test [2].

Consider `CCCCCCCCCCCC(=O)NCCOCCOCC(=O)NCCOCCOCC(=O)NCCOCCOCC(=O)NCCCC[C@H](NC(=O)[C@@H](NC(=O)[C@@H](NC(=O)[C@](C)(Cc1ccccc1)NC(=O)[C@H](C)NC(=O)[C@@H](NC(=O)[C@](C)(Cc1ccccc1)NC(=O)[C@H](CCC(=O)O)NC(=O)[C@](C)(CCCCN)NC(=O)[C@H](C)NC(=O)[C@H](C)NC(=O)[C@H](CCC(=O)O)NC(=O)CNC(=O)[C@H](CCC(=O)O)NC(=O)[C@H](CC(C)C)NC(=O)[C@](C)(Cc1ccccc1)NC(=O)[C@H](CO)NC(=O)[C@](C)(CO)NC(=O)[C@@H](NC(=O)[C@H](CC(=O)O)NC(=O)[C@H](CO)NC(=O)[C@@H](NC(=O)[C@](C)(Cc1ccccc1)NC(=O)[C@H](CO)NC(=O)CNC(=O)[C@H](CCC(=O)O)NC(=O)C(C)(C)NC(=O)[C@@H](N)Cc1c[nH]cn1)[C@@H](C)O)C(C)C)[C@@H](C)CC)C(C)C)C(C)C)C(=O)NCC(=O)NCC(N)=O` [compound 172], for which the pEC50 in test [1] (setting [8]) is ≤ 7.59; in test [1] (setting [9]), ≤ 7.59; on GLP-1R (INS1e assay) (setting [4]), 10.40; on GLP-1R (INS1e assay) (setting [5]) it was 10.55; in test [2] (setting [6]), 11.82; in test [3] (setting [10]), ≤ 7.59. Also, the pEC50 in test [3] (setting [11]) is ≤ 7.59. For the same compound, the results for the EC50 (at GLP-1R (INS1e assay); in test [2]) were 33.8 pM and 1.1 pM, respectively.

`CC[C@H](C)[C@H](NC(=O)[C@](C)(Cc1ccccc1)NC(=O)[C@H](CCC(=O)O)NC(=O)[C@](C)(CCCCN)NC(=O)[C@H](C)NC(=O)[C@H](C)NC(=O)[C@H](CCCCNC(=O)COCCOCCNC(=O)COCCOCCNC(=O)CC[C@H](NC(=O)CCCCCCCCCCCCCCCCC(=O)O)C(=O)O)NC(=O)CNC(=O)[C@H](CCC(=O)O)NC(=O)[C@H](CC(C)C)NC(=O)[C@](C)(Cc1ccccc1)NC(=O)[C@H](CO)NC(=O)[C@](C)(CO)NC(=O)[C@@H](NC(=O)[C@H](CC(=O)O)NC(=O)[C@H](CO)NC(=O)[C@@H](NC(=O)[C@](C)(Cc1ccccc1)NC(=O)[C@H](CO)NC(=O)CNC(=O)[C@H](CCC(=O)O)NC(=O)C(C)(C)NC(=O)[C@@H](N)Cc1c[nH]cn1)[C@@H](C)O)C(C)C)C(=O)N[C@@H](C)C(=O)N[C@@](C)(Cc1ccccc1)C(=O)N[C@H](C(=O)N[C@H](C(=O)N[C@@](C)(CCCCN)C(=O)NCC(=O)NCC(N)=O)C(C)C)C(C)C` [compound 112] (H-H[Aib]EGS[αMeF]TSDV[αMeS]S[αMeF]LEGK([AEEA-AEEA-γGlu-C18 diacid])AA[αMeK]E[αMeF]IA[αMeF]VV[αMeK]GG-NH2; N-terminus assumed): the pEC50 is ≤ 7.60 in test [1] (setting [8]); ≤ 7.60 in test [1] (setting [9]); 9.53 at GLP-1R (INS1e assay) (setting [4]); 9.32 at GLP-1R (INS1e assay) (setting [5]); 11.29 in test [2] (setting [7]); ≤ 7.60 in test [3] (setting [10]). The pEC50 in test [3] (setting [11]) was ≤ 7.60. Further, at GLP-1R (INS1e assay), the EC50 turned out to be 385 pM.

In the case of `CCCCCCCCCCCCCCCC(=O)N[C@@H](CCC(=O)NCCCC[C@H](NC(=O)[C@H](C)NC(=O)[C@@H](NC(=O)[C@](C)(Cc1ccccc1)NC(=O)[C@H](CCC(=O)O)NC(=O)[C@](C)(CCCCN)NC(=O)[C@H](C)NC(=O)[C@H](C)NC(=O)[C@H](CCC(=O)O)NC(=O)CNC(=O)[C@H](CCC(=O)O)NC(=O)[C@H](CC(C)C)NC(=O)[C@](C)(Cc1ccccc1)NC(=O)[C@H](CO)NC(=O)[C@](C)(CO)NC(=O)[C@@H](NC(=O)[C@H](CC(=O)O)NC(=O)[C@H](CO)NC(=O)[C@@H](NC(=O)[C@](C)(Cc1ccccc1)NC(=O)[C@H](CO)NC(=O)CNC(=O)[C@H](CCC(=O)O)NC(=O)C(C)(C)NC(=O)[C@@H](N)Cc1c[nH]cn1)[C@@H](C)O)C(C)C)[C@@H](C)CC)C(=O)N[C@H](C(=O)N[C@H](C(=O)N[C@@](C)(CCCCN)C(=O)NCC(=O)NCC(N)=O)C(C)C)C(C)C)C(=O)O` [compound 75], the negative logarithm of the EC50 (pEC50) in test [1] (setting [8]) is ≤ 7.55; in test [1] (setting [9]), ≤ 7.55; on GLP-1R (INS1e assay) (setting [4]) it was 10.30; at GLP-1R (INS1e assay) (setting [5]) it was 10.20; in test [2] (setting [6]) it was 11.70; in test [2] (setting [7]), 11.85. The negative logarithm of the EC50 (pEC50) in test [3] (setting [10]) and in test [3] (setting [11]) was ≤ 7.55 in each case. Moreover, the figures for the EC50 (at GLP-1R (INS1e assay); in test [2]) were 56 pM and 1.7 pM, respectively.

Take `CC[C@H](C)[C@H](NC(=O)[C@](C)(Cc1ccccc1)NC(=O)[C@H](CCC(=O)O)NC(=O)[C@H](CCC(=O)O)NC(=O)[C@H](C)NC(=O)[C@H](C)NC(=O)[C@H](CCC(=O)O)NC(=O)CNC(=O)[C@H](CCC(=O)O)NC(=O)[C@H](CC(C)C)NC(=O)[C@](C)(Cc1ccccc1)NC(=O)[C@H](CO)NC(=O)[C@](C)(CO)NC(=O)[C@@H](NC(=O)[C@H](CC(=O)O)NC(=O)[C@H](CO)NC(=O)[C@@H](NC(=O)[C@](C)(Cc1ccccc1)NC(=O)[C@H](CO)NC(=O)CNC(=O)[C@H](CCC(=O)O)NC(=O)C(C)(C)NC(=O)[C@@H](N)Cc1c[nH]cn1)[C@@H](C)O)C(C)C)C(=O)N[C@@H](C)C(=O)N[C@@](C)(Cc1ccccc1)C(=O)N[C@H](C(=O)N[C@H](C(=O)N[C@@](C)(CCCCN)C(=O)NCC(=O)NCC(N)=O)C(C)C)C(C)C` [compound 42] (H-H[Aib]EGS[αMeF]TSDV[αMeS]S[αMeF]LEGEAAEE[αMeF]IA[αMeF]VV[αMeK]GG-NH2): the pEC50 in test [1] (setting [8]) was ≤ 7.51; in test [1] (setting [9]) it was ≤ 7.51; at GLP-1R (INS1e assay) (setting [4]) it was 9.68; on GLP-1R (INS1e assay) (setting [5]) it was 9.78; in test [2] (setting [6]) it was 11.16; in test [2] (setting [7]), 10.96. In addition, the negative logarithm of the EC50 (pEC50) in test [3] (setting [10]) and in test [3] (setting [11]) was ≤ 7.51 in each case. For the same compound, the values for the EC50 (at GLP-1R (INS1e assay); in test [2]) were 187 pM and 8.7 pM, respectively.
